From patent US20010056060A1, “Treatment of osteoporsis with EP2/EP4 receptor selective agonists” (priority 2000, published 2001)

Legend:
EP4 receptor = molecular target: T1, EP4 receptor (Homo sapiens, UniProt P35408); test: Assay for binding to prostaglandin E2 receptors (3H-PGE2 displacement), EP4
T1 construct: The full length EP4 receptor is made as disclosed in Bastien; expressed in transfected cells; membranes
Experimental: (§1) All operations are performed at 4° C. […] The cells are lysed by sonification with a Branson Sonifier (Model #250, Branson Ultrasonics Corporation, Danbury, Conn.) in 2 fifteen second bursts. Unlysed cells and debris are removed by centrifugation at 100× g for 10 min. Membranes are then harvested by centrifugation at 45,000× g for 30 minutes. Pelleted membranes are resuspended to 3-10 mg protein per ml, protein concentration being determined of the method of Bradford [Bradford, M., Anal. Biochem., 72, 248 (1976)]. Resuspended membranes are then stored frozen at −80° C. until use.
(§2) Frozen membranes prepared as above are thawed and diluted to 1 mg protein per ml in Buffer A above. […] The membranes are then recovered by filtration through type GF/C glass fiber filters (#1205-401, Wallac, Gaithersburg, Md.) using a Tomtec harvester (Model Mach II/96, Tomtec, Orange, Conn.). […] Each sample is then washed 3 times with 3 ml of [50 mM Tris-HCl (pH 7.4), 10 mM MgCl2, 1 mM EDTA]. The filters are then dried by heating in a microwave oven. To determine the amount of ^3H—prostaglandin bound to the membranes, the dried filters are placed into plastic bags with scintillation fluid and counted in a LKB 1205 Betaplate reader (Wallac, Gaithersburg, Md.).
(§3) The full length EP1 receptor is made as disclosed in Funk et al., Journal of Biological Chemistry, 1993, 268, 26767-26772. […]

EP2 receptor = molecular target: T2, EP2 receptor (Homo sapiens, UniProt P43116); test: Assay for binding to prostaglandin E2 receptors (3H-PGE2 displacement), EP2
T2 construct: The full length EP2 receptor is made as disclosed in Regan et al; expressed in transfected cells; membranes
T2 sequence (P43116 whole entry): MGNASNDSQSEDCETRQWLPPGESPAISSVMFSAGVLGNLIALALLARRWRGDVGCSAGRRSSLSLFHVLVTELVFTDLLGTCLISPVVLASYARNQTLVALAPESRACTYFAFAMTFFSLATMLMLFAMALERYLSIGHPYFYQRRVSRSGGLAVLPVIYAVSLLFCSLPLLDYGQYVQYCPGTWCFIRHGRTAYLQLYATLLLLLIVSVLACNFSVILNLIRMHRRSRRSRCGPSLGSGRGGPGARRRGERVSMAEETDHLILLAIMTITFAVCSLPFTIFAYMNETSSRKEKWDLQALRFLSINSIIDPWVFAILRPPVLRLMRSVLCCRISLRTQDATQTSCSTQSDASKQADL
Experimental: as §1, §2, §3

DP receptor = molecular target: T3, DP receptor (Homo sapiens, UniProt Q13258); test: DP receptor binding
T3 sequence (Q13258 1-359): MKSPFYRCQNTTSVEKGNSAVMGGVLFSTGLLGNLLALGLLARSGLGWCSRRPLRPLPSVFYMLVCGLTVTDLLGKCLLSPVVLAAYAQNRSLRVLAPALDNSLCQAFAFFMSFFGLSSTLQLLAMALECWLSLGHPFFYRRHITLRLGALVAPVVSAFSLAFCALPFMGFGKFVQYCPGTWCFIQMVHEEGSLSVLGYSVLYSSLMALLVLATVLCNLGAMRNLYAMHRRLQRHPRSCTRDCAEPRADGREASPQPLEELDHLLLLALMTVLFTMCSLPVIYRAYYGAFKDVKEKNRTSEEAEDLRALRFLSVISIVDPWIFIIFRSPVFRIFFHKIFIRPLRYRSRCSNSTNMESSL

osteopenic, OVX rats = test: Example One: skeletal effects in osteopenic OVX rats, distal femoral metaphyseal BMC/BMD by DXA; assay type: in vivo, Sprague-Dawley female rats; details: 10 mg/kg/day subcutaneous injection for 4 weeks
Experimental: Prostaglandin E2 (PGE2) restores bone mass by stimulating both bone formation and bone resorption but in favor of bone formation in ovariectomized (OVX) rat skeleton.
Sprague-Dawley female rats were sham-operated (n=20) or OVX (n=50) at 3 months of age. Five weeks post-surgery, OVX rats were treated (subcutaneous injection) with either vehicle or 3-(3-hydroxy-4-phenyl-butyl)-2-(6-(1 H—tetrazol-5-yl)-hexyl)-cyclopentanone at 10 mg/kg/day for 4 weeks. Distal femoral metaphyseal bone mineral content (BMC) and bone mineral density (BMD) were determined by dual energy x-ray absorptiometry (Hologic QDR-1000/W, Hologic Inc., Waltham, Mass.) according to the methods described by Ke et al., (Droloxifene, a New Estrogen Antagonist/Agonist, Prevents Bone Loss in Ovariectomized Rats, Endocrinology, 136:2435-2441; 1995).

FP receptor = FP receptor (Homo sapiens, UniProt P43088); test: FP receptor binding
Chain of FP receptor (P43088 whole entry): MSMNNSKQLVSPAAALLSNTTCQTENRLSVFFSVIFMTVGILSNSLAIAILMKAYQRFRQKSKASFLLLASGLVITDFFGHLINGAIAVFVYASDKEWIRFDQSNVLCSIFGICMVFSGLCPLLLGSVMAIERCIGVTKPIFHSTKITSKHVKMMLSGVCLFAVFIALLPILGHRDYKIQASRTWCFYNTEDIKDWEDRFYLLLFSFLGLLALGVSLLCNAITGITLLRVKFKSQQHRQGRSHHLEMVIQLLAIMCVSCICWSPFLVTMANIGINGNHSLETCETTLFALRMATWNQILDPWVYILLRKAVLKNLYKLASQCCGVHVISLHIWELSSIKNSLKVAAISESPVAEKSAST

EP3 receptor = molecular target: T4, EP3 receptor (Homo sapiens, UniProt P43115); test: Assay for binding to prostaglandin E2 receptors (3H-PGE2 displacement), EP3
T4 construct: The full length EP3 receptor is made as disclosed in Regan et al; expressed in transfected cells; membranes
T4 sequence (P43115 1-390): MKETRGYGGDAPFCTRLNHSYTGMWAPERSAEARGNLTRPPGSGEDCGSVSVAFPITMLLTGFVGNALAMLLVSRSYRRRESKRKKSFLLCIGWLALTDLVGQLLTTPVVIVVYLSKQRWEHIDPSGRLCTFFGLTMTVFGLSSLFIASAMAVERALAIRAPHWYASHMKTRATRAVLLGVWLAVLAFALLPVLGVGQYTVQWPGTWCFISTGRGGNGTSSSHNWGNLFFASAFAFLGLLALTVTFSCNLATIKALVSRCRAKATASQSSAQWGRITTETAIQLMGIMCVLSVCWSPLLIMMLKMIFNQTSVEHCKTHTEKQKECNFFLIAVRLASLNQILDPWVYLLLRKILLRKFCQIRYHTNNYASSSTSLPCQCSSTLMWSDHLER
Experimental: (§4) All operations are performed at 4° C. […] Louis, Mo.), 1 uM pepstatin A peptide, (Sigma, St. Louis, Mo.), 10 uM elastatinal peptide, (Sigma, St. Louis, Mo.), 100 uM antipain peptide, (Sigma, St. Louis, Mo.)]. The cells are lysed by sonification with a Branson Sonifier (Model #250, Branson Ultrasonics Corporation, Danbury, Conn.) in 2 fifteen second bursts. Unlysed cells and debris are removed by centrifugation at 100× g for 10 min. Membranes are then harvested by centrifugation at 45,000× g for 30 minutes. Pelleted membranes are resuspended to 3-10 mg protein per ml, protein concentration being determined of the method of Bradford [Bradford, M., Anal. Biochem., 72, 248 (1976)]. Resuspended membranes are then stored frozen at -80° C. until use. Frozen membranes prepared as above are thawed and diluted to 1 mg protein per ml in Buffer A above. One volume of membrane preparation is combined with 0.05 volume test compound or buffer and one volume of 3 nM ^3H-prostaglandin E2 (#TRK 431, Amersham, Arlington Heights, Ill.) in Buffer A. The mixture (205 μL total volume) is incubated for 1 hour at 25° C. […] To determine the amount of ^3H-prostaglandin bound to the membranes, the dried filters are placed into plastic bags with scintillation fluid and counted in a LKB 1205 Betaplate reader (Wallac, Gaithersburg, Md.). […]

IP receptor = IP receptor (Homo sapiens, UniProt P43119); test: IP receptor binding
Chain of IP receptor (P43119 whole entry): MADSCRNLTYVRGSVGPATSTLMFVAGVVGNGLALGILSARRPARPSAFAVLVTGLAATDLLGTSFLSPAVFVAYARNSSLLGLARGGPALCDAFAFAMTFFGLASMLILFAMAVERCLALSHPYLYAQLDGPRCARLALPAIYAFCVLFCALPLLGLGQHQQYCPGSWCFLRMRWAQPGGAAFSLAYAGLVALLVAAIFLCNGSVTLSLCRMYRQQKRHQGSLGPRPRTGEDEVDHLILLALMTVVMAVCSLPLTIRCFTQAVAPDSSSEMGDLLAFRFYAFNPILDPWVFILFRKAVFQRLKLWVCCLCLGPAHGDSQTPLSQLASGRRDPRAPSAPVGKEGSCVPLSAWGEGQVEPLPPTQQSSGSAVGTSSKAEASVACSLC

EP1 receptor = molecular target: T5, EP1 receptor (Homo sapiens, UniProt P34995); test: Assay for binding to prostaglandin E2 receptors (3H-PGE2 displacement), EP1
T5 construct: The full length EP1 receptor is made as disclosed in Funk et al; expressed in transfected cells; membranes
T5 sequence (P34995 1-402): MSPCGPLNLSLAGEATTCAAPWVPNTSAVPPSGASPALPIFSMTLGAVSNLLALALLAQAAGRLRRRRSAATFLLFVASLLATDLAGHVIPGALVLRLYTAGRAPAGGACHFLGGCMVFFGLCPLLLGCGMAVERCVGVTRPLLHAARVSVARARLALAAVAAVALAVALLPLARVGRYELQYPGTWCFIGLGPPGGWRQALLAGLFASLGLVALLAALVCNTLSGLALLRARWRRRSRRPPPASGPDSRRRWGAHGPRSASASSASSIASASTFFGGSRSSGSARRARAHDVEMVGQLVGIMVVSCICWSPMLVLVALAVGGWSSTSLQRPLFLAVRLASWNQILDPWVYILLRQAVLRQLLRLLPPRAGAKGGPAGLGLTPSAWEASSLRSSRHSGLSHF
Experimental: as §4

T1 sequence (P35408 whole entry): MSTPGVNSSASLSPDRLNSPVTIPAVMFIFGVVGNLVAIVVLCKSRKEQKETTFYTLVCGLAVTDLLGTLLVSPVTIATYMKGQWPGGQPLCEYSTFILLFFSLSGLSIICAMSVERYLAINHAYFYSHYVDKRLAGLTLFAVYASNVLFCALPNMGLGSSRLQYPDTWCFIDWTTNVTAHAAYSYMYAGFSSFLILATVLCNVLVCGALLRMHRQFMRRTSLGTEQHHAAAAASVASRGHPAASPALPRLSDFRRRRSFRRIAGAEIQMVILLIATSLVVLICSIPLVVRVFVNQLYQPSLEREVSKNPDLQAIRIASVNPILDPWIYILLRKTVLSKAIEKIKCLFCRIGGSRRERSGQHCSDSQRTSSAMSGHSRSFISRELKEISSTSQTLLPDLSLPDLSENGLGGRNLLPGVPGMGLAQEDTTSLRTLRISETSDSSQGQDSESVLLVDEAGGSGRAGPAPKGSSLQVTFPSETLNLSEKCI

| Compound | IC50 (EP4 receptor) | IC50 (EP2 receptor) | IC50 (DP receptor) | restoration of bone mass to the OVX, osteopenic rat skeleton (osteopenic, OVX rats) | increase in distal femoral metaphyseal BMC as compared with OVX controls (osteopenic, OVX rats; started 5 weeks post-OVX) | increase in distal femoral metaphyseal BMC as compared with pre-treatment OVX controls (osteopenic, OVX rats; started 5 weeks post-OVX) | increase in distal femoral metaphyseal BMD as compared with OVX controls (osteopenic, OVX rats; started 5 weeks post-OVX) | increase in distal femoral metaphyseal BMD as compared with pre-treatment OVX controls (osteopenic, OVX rats; started 5 weeks post-OVX) | IC50 (FP receptor) | IC50 (EP3 receptor) | IC50 (IP receptor) | IC50 (EP1 receptor) |
| --- | --- | --- | --- | --- | --- | --- | --- | --- | --- | --- | --- | --- |
| O=C(O)CCCCCCN1C(=O)CCC1CCC(O)Cc1ccccc1 (centres unmarked) [7-(2-(3-hydroxy-4-phenyl-butyl)-5-oxo-pyrrolidin-1-yl)-heptanoic acid] | 0.036 µM | – | – | – | – | – | – | – | – | – | – | – |
| CS(=O)(=O)N(CCCCCCC(=O)O)CCOc1cc(Cl)cc(Cl)c1 [7-(2-(3,5-dichloro-phenoxy)-ethyl)-methanesulfonyl-amino)-heptanoic acid] | – | 0.017 µM | – | – | – | – | – | – | – | – | – | – |
| O=C1CCC(CCC(O)Cc2ccccc2)C1CCCCCCc1nnn[nH]1 (centres unmarked) [3-(3-hydroxy-4-phenyl-butyl)-2-(6-(1 H—tetrazol-5-yl)-hexyl)-cyclopentanone] | 0.07 µM | 0.056 µM | > 3.2 µM | completely restored the bone mass | +42% | +23% | +28% | +17% | > 3.2 µM | > 3.2 µM | > 3.2 µM | > 3.2 µM |
